PubChem BioAssay AID1918932 (Molecular Pharmacology Branch, DTP, NCI, 2023)

Test system: 171881-019-R-J1-PDC complex spheroid viability
Experiment: Anticancer human tumor 171881-019-R-J1-PDC patient-derived invasive breast carcinoma cell line growth inhibition
Conditions: for IC50: curve of first compound; for viability, T/C: stronger effect = lower value; active = viability on the fitted dose curve at most 10% of control; inactive = the rest
Method in brief: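 Multicellular complex spheroids of tumor cells with human endothelial cells (HUVEC) and mesenchymal stem cells; the LSD1 inhibitor iadademstat was combined with standard-of-care or investigational agents. Top concentration at or near clinical Cmax, half-log dilutions; final DMSO ≤0.25%.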

[1] = second compound 0.1 µM, first compound 0.0316 µM
[2] = second compound 0.1 µM, first compound 0.1 µM
[3] = second compound 0.316 µM, first compound 0.0316 µM
[4] = second compound 0.316 µM, first compound 0.1 µM
[5] = second compound 1 µM, first compound 0.0316 µM
[6] = second compound 1 µM, first compound 0.1 µM
[7] = second compound 3.16 µM, first compound 0.0316 µM
[8] = second compound 3.16 µM, first compound 0.1 µM
[9] = second compound 10 µM, first compound 0.0316 µM
[10] = second compound 10 µM, first compound 0.1 µM
[11] = second compound 0.1 µM, first compound 0.000949 µM
[12] = second compound 0.1 µM, first compound 0.003 µM
[13] = second compound 0.1 µM, first compound 0.00949 µM
[14] = second compound 0.1 µM, first compound 0.03 µM
[15] = second compound 0.1 µM, first compound 0.0949 µM
[16] = second compound 0.1 µM, first compound 0.3 µM
[17] = second compound 0.316 µM, first compound 0.000949 µM
[18] = second compound 0.316 µM, first compound 0.003 µM
[19] = second compound 0.316 µM, first compound 0.00949 µM
[20] = second compound 0.316 µM, first compound 0.03 µM
[21] = second compound 0.316 µM, first compound 0.0949 µM
[22] = second compound 0.316 µM, first compound 0.3 µM
[23] = second compound 1 µM, first compound 0.000949 µM
[24] = second compound 1 µM, first compound 0.003 µM
[25] = second compound 1 µM, first compound 0.00949 µM
[26] = second compound 1 µM, first compound 0.03 µM
[27] = second compound 1 µM, first compound 0.0949 µM
[28] = second compound 1 µM, first compound 0.3 µM
[29] = second compound 3.16 µM, first compound 0.000949 µM
[30] = second compound 3.16 µM, first compound 0.003 µM
[31] = second compound 3.16 µM, first compound 0.00949 µM
[32] = second compound 3.16 µM, first compound 0.03 µM
[33] = second compound 3.16 µM, first compound 0.0949 µM
[34] = second compound 3.16 µM, first compound 0.3 µM
[35] = second compound 10 µM, first compound 0.000949 µM
[36] = second compound 10 µM, first compound 0.003 µM
[37] = second compound 10 µM, first compound 0.00949 µM
[38] = second compound 10 µM, first compound 0.03 µM
[39] = second compound 10 µM, first compound 0.0949 µM
[40] = second compound 10 µM, first compound 0.3 µM
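Also: spheroids exposed to agents for 7 days after 3 days growth.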

CC[C@@]1(O)C(=O)OCc2c1cc1n(c2=O)Cc2cc3c(CN(C)C)c(O)ccc3nc2-1 + NC1CCC(NC2CC2c2ccccc2)CC1
> 100 nM: IC50 (second compound 0.1 µM) | IC50 (second compound 0.316 µM) | IC50 (second compound 1 µM) | IC50 (second compound 3.16 µM) | IC50 (second compound 10 µM)
inactive: viability, T/C (second compound 0.1 µM, first compound 0.000316 µM) 83.9% | viability, T/C (second compound 0.1 µM, first compound 0.001 µM) 91.8% | viability, T/C (second compound 0.1 µM, first compound 0.00316 µM) 122% | viability, T/C (second compound 0.1 µM, first compound 0.01 µM) 74.7% | viability, T/C [1] 69.5% | viability, T/C [2] 50.6% | viability, T/C (second compound 0.316 µM, first compound 0.000316 µM) 80.2% | viability, T/C (second compound 0.316 µM, first compound 0.001 µM) 86.1% | viability, T/C (second compound 0.316 µM, first compound 0.00316 µM) 125% | viability, T/C (second compound 0.316 µM, first compound 0.01 µM) 71.1% | viability, T/C [3] 67.3% | viability, T/C [4] 56.5% | viability, T/C (second compound 1 µM, first compound 0.000316 µM) 87.5% | viability, T/C (second compound 1 µM, first compound 0.001 µM) 89.4% | viability, T/C (second compound 1 µM, first compound 0.00316 µM) 128% | viability, T/C (second compound 1 µM, first compound 0.01 µM) 77.6% | viability, T/C [5] 72.4% | viability, T/C [6] 59% | viability, T/C (second compound 3.16 µM, first compound 0.000316 µM) 95.2% | viability, T/C (second compound 3.16 µM, first compound 0.001 µM) 94.5% | viability, T/C (second compound 3.16 µM, first compound 0.00316 µM) 138% | viability, T/C (second compound 3.16 µM, first compound 0.01 µM) 83.1% | viability, T/C [7] 75.8% | viability, T/C [8] 62.3% | viability, T/C (second compound 10 µM, first compound 0.000316 µM) 88% | viability, T/C (second compound 10 µM, first compound 0.001 µM) 93.7% | viability, T/C (second compound 10 µM, first compound 0.00316 µM) 133% | viability, T/C (second compound 10 µM, first compound 0.01 µM) 92.7% | viability, T/C [9] 90.7% | viability, T/C [10] 76.4%

CCc1c2c(nc3ccc(O)cc13)-c1cc3c(c(=O)n1C2)COC(=O)[C@]3(O)CC + NC1CCC(NC2CC2c2ccccc2)CC1
inactive: viability, T/C [11] 64.2% | viability, T/C [12] 53.5% | viability, T/C [13] 32.2% | viability, T/C [14] 20.5% | viability, T/C [17] 67.5% | viability, T/C [18] 55.5% | viability, T/C [19] 33.2% | viability, T/C [20] 20.6% | viability, T/C [21] 9.31% | viability, T/C [23] 69.5% | viability, T/C [24] 61.4% | viability, T/C [25] 34.8% | viability, T/C [26] 22.4% | viability, T/C [27] 10.3% | viability, T/C [29] 75% | viability, T/C [30] 65.3% | viability, T/C [31] 35.5% | viability, T/C [32] 21.9% | viability, T/C [33] 10.3% | viability, T/C [35] 86% | viability, T/C [36] 66.8% | viability, T/C [37] 35.6% | viability, T/C [38] 21.8% | viability, T/C [39] 9.69%
active: viability, T/C [15] 8.51% | viability, T/C [16] 6.45% | viability, T/C [22] 6.46% | viability, T/C [28] 7.43% | viability, T/C [34] 7.23% | viability, T/C [40] 6.81%
5.52 nM: IC50 (second compound 3.16 µM)
3.88 nM: IC50 (second compound 0.316 µM)
5.75 nM: IC50 (second compound 10 µM)
4.87 nM: IC50 (second compound 1 µM)
3.45 nM: IC50 (second compound 0.1 µM)

Nc1ccccc1NC(=O)c1ccc(CNC(=O)OCc2cccnc2)cc1 + NC1CCC(NC2CC2c2ccccc2)CC1
252 nM: IC50 (second compound 0.316 µM)
inactive: viability, T/C [13] 86.6% | viability, T/C [14] 85.5% | viability, T/C [15] 117% | viability, T/C [16] 43.9% | viability, T/C [19] 89.2% | viability, T/C [20] 98.6% | viability, T/C [21] 119% | viability, T/C [22] 40.8% | viability, T/C [25] 91.3% | viability, T/C [26] 104% | viability, T/C [27] 116% | viability, T/C [28] 46% | viability, T/C [31] 87.8% | viability, T/C [32] 96% | viability, T/C [33] 115% | viability, T/C [34] 48.1% | viability, T/C [37] 92.5% | viability, T/C [38] 109% | viability, T/C [39] 126% | viability, T/C [40] 53.6%
325 nM: IC50 (second compound 10 µM)
277 nM: IC50 (second compound 1 µM)
active: viability, T/C (second compound 0.1 µM, first compound 0.949 µM) 2.1% | viability, T/C (second compound 0.1 µM, first compound 3 µM) 0.32% | viability, T/C (second compound 0.316 µM, first compound 0.949 µM) 2.42% | viability, T/C (second compound 0.316 µM, first compound 3 µM) 0.34% | viability, T/C (second compound 1 µM, first compound 0.949 µM) 1.97% | viability, T/C (second compound 1 µM, first compound 3 µM) 0.29% | viability, T/C (second compound 3.16 µM, first compound 0.949 µM) 2.3% | viability, T/C (second compound 3.16 µM, first compound 3 µM) 0.22% | viability, T/C (second compound 10 µM, first compound 0.949 µM) 2.32% | viability, T/C (second compound 10 µM, first compound 3 µM) 0.27%
288 nM: IC50 (second compound 3.16 µM)
263 nM: IC50 (second compound 0.1 µM)

Nc1ccn(C2OC(CO)C(O)C2(F)F)c(=O)n1 (stereo not given) + NC1CCC(NC2CC2c2ccccc2)CC1
> 300 nM: IC50 (second compound 0.1 µM) | IC50 (second compound 0.316 µM) | IC50 (second compound 1 µM) | IC50 (second compound 3.16 µM) | IC50 (second compound 10 µM)
inactive: viability, T/C [11] 77.4% | viability, T/C [12] 53.8% | viability, T/C [13] 56.2% | viability, T/C [14] 59.2% | viability, T/C [15] 57.8% | viability, T/C [16] 55.6% | viability, T/C [17] 77.7% | viability, T/C [18] 54.9% | viability, T/C [19] 54.6% | viability, T/C [20] 58.6% | viability, T/C [21] 56.4% | viability, T/C [22] 54.3% | viability, T/C [23] 85.6% | viability, T/C [24] 56.5% | viability, T/C [25] 57.8% | viability, T/C [26] 60.4% | viability, T/C [27] 58% | viability, T/C [28] 54.7% | viability, T/C [29] 84.8% | viability, T/C [30] 56% | viability, T/C [31] 60.8% | viability, T/C [32] 63.4% | viability, T/C [33] 60.1% | viability, T/C [34] 54.7% | viability, T/C [35] 90.5% | viability, T/C [36] 62.5% | viability, T/C [37] 64% | viability, T/C [38] 70% | viability, T/C [39] 68.5% | viability, T/C [40] 64.1%

O=C(c1cc(Cc2n[nH]c(=O)c3ccccc23)ccc1F)N1CCN(C(=O)C2CC2)CC1 + NC1CCC(NC2CC2c2ccccc2)CC1
inactive: viability, T/C [1] 85.3% | viability, T/C [2] 86.6% | viability, T/C (second compound 0.1 µM, first compound 0.316 µM) 82.4% | viability, T/C (second compound 0.1 µM, first compound 1 µM) 86.6% | viability, T/C (second compound 0.1 µM, first compound 3.16 µM) 84.7% | viability, T/C (second compound 0.1 µM, first compound 10 µM) 85.1% | viability, T/C [3] 91.7% | viability, T/C [4] 82.7% | viability, T/C (second compound 0.316 µM, first compound 0.316 µM) 87.7% | viability, T/C (second compound 0.316 µM, first compound 1 µM) 79.6% | viability, T/C (second compound 0.316 µM, first compound 3.16 µM) 86.2% | viability, T/C (second compound 0.316 µM, first compound 10 µM) 82% | viability, T/C [5] 90.6% | viability, T/C [6] 95.9% | viability, T/C (second compound 1 µM, first compound 0.316 µM) 88.9% | viability, T/C (second compound 1 µM, first compound 1 µM) 79.9% | viability, T/C (second compound 1 µM, first compound 3.16 µM) 85.8% | viability, T/C (second compound 1 µM, first compound 10 µM) 80% | viability, T/C [7] 99.8% | viability, T/C [8] 87.8% | viability, T/C (second compound 3.16 µM, first compound 0.316 µM) 86.3% | viability, T/C (second compound 3.16 µM, first compound 1 µM) 79.3% | viability, T/C (second compound 3.16 µM, first compound 3.16 µM) 88.4% | viability, T/C (second compound 3.16 µM, first compound 10 µM) 80.9% | viability, T/C [9] 83.8% | viability, T/C [10] 82.9% | viability, T/C (second compound 10 µM, first compound 0.316 µM) 78.3% | viability, T/C (second compound 10 µM, first compound 1 µM) 74.2% | viability, T/C (second compound 10 µM, first compound 3.16 µM) 81.9% | viability, T/C (second compound 10 µM, first compound 10 µM) 80.5%
> 10000 nM: IC50 (second compound 0.1 µM) | IC50 (second compound 0.316 µM) | IC50 (second compound 1 µM) | IC50 (second compound 3.16 µM) | IC50 (second compound 10 µM)
